Results from patent US20250248402A1, “HERBICIDAL COMPOSITIONS AND METHODS FOR CONTROLLING WEEDS” (UPL Mauritius Limited, priority 2024, published 2025).

Assays:
[1] = test system: common waterhemp, Non-Target Site Resistant "ACR" Population; assay: Greenhouse dose-response, effective dose on atrazine-resistant waterhemp; format: in vivo, Amaranthus tuberculatus; conditions: 13 days after treatment, visual scale 0-100
[2] = test system: common waterhemp, Non-Target Site Resistant "MCR" Population; assay: as above; format: in vivo, Amaranthus tuberculatus; conditions: 13 days after treatment, visual scale 0-100

## CCNc1nc(Cl)nc(NC(C)C)n1 [Atrazine (480 g/L FL), Atrazine]
[1]
  ED 20 Estimate: 6.782 g ai/ha
  ED 80 Estimate: 768.664 g ai/ha
[2]
  ED 20 Estimate: 20.856 g ai/ha
  ED 80 Estimate: 793.705 g ai/ha
